For the series, the system named is U937 viability, trypan blue exclusion, 24 h. Kind of series: U937 cell cytotoxicity, late-stage follow-up, cytotoxicity control for Cdc42 probe extension project, trypan blue exclusion (AID 651732). The conditions noted are these: at 30 µM (top of the series).

Calls of active or inactive are those of the source.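 Rule for the calls: active = cytotoxic compounds whose viability ratio versus DMSO control falls below 0.85 at 10 µM; inactive = the rest.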

In the case of `COc1ccc(C2CC(c3ccccc3)=NN2c2ccc(S(N)(=O)=O)cc2)cc1` (stereo unspecified), the viability ratio to DMSO was 0.19 (inactive).

Values taken from PubChem BioAssay AID651732 (NMMLSC, 2012).
